Converted amounts (≈) assume the structure as drawn.
Columns and labels:
SKMES (lung) = experiment: Radiometric growth inhibition of tumor cells, SKMES; format: cell-based, human
Text: CELL LINES: Eight different established human cell lines CALU (lung), COLO320 (colon), H578St (breast), HT-29 (colon), MCF-7 (breast), OM-1 (colon), SKLU (lung) and SKMES(lung), and two control cell lines (bone marrow and/or fibroblast cells) were utilized. All cell lines were obtained from the Tumor Cloning Laboratory, Institute for Drug Development, Cancer Therapy and Research Center, San Antonio, Tex. All cell lines grew as monolayers in the appropriate culture medium supplemented with heat-inactivated calf serum. All reagents were obtained from Grand Island Biological Co., Grand Island, N.Y. […]
RADIOMETRIC MEASUREMENT OF GROWTH INHIBITION: Growth inhibition was assessed with the BACTEC System 460 (Johnston Laboratories, Towson, Md.) after addition of the antitumor agent to the cell in the respective growth medium containing ^14 C-glucose at a final concentration of 2 μCi/ml. […]
Two mls of the tumor cell suspension containing radioactive glucose were seeded into sterile, disposable 15 ml vials by injection through self-sealing rubber-aluminum caps. […] Chemotherapy sensitivity was calculated by comparing the growth index values of drug-treated vials to that observed in control vials. […]

CALU (lung) = experiment: Radiometric growth inhibition of tumor cells, CALU; format: cell-based, human; design: % SURVIVAL TUMOR: concentration or dose not given beside the values
Text: (§1) CELL LINES: Eight different established human cell lines CALU (lung), COLO320 (colon), H578St (breast), HT-29 (colon), MCF-7 (breast), OM-1 (colon), SKLU (lung) and SKMES(lung), and two control cell lines (bone marrow and/or fibroblast cells) were utilized. All cell lines were obtained from the Tumor Cloning Laboratory, Institute for Drug Development, Cancer Therapy and Research Center, San Antonio, Tex. All cell lines grew as monolayers in the appropriate culture medium supplemented with heat-inactivated calf serum. All reagents were obtained from Grand Island Biological Co., Grand Island, N.Y.
(§2) The iv formulations of the compounds of the present invention were prepared with sterile buffered saline and stored at -70° C. until required for testing.
(§3) Following trypsinization, tumor cells were suspended in tissue culture medium and exposed to the antitumor agents continuously at three different concentrations: 10, 1 and 0.1 μg/ml.
(§4) RADIOMETRIC MEASUREMENT OF GROWTH INHIBITION: Growth inhibition was assessed with the BACTEC System 460 (Johnston Laboratories, Towson, Md.) after addition of the antitumor agent to the cell in the respective growth medium containing ^14 C-glucose at a final concentration of 2 μCi/ml.
(§5) Two mls of the tumor cell suspension containing radioactive glucose were seeded into sterile, disposable 15 ml vials by injection through self-sealing rubber-aluminum caps. […] The seeded vials were then incubated at 37° C. Measurement of the release of ^14 CO2 resulting from the metabolism of ^14 C-glucose were performed on days 6, 9, 12 and 15 in the BACTEC instrument. This instrument flushes the ^14 CO2 containing air out of the vials into an ionization chamber that converts dpm to growth index values. […] Each data point represents triplicate values.
(§6) All compounds were dosed on an equimilimolar basis.

[1] = In vitro survival of bone marrow control cells (radiometric BACTEC); format: cell-based; conditions: bone marrow cells
Text: as §1, §2, §3, §4, §5, §6

SKLU (lung) = experiment: Radiometric growth inhibition of tumor cells, SKLU; format: cell-based, human
Text: as §1, §2, §3, §4, §5, §6

COLO320 (colon) = experiment: Radiometric growth inhibition of tumor cells, COLO320; format: cell-based, human
Text: as §1, §2, §3, §4, §5, §6

HT29 (colon) = experiment: Radiometric growth inhibition of tumor cells, HT29; format: cell-based, human; design: % SURVIVAL TUMOR: concentration or dose not given beside the values
Text: as §1, §2, §3, §4, §5, §6

MCF-7 (breast) = experiment: Radiometric growth inhibition of tumor cells, MCF-7; format: cell-based, human; design: % SURVIVAL TUMOR: concentration or dose not given beside the values
Text: as §1, §2, §3, §4, §5, §6

HS578T (breast) = experiment: Radiometric growth inhibition of tumor cells, HS578T; format: cell-based, human
Text: as §1, §2, §3, §4, §5, §6

OM-1 (colon) = experiment: Radiometric growth inhibition of tumor cells, OM-1; format: cell-based, human
Text: as §1, §2, §3, §4, §5, §6

O=c1[nH]cc(F)c(=O)[nH]1 [Example 5-FU, 5-fluorouracil, reference compound]
IC50 (SKMES (lung); Homo sapiens, concentration required to kill 50%): < 0.6 µg/mL | % SURVIVAL TUMOR (SKMES (lung); continuous exposure): 11.2% | % SURVIVAL TUMOR (CALU (lung); CALU, continuous exposure): 2.2% | IC50 (CALU (lung); Homo sapiens): < 0.6 µg/mL | viability [1]: 1.9% | IC50 (SKLU (lung); Homo sapiens): 1.05 µg/mL (≈ 8.07 µM) | % SURVIVAL TUMOR (SKLU (lung); human, sklu lung tumor cells): 5.0% | IC50 (COLO320 (colon); Homo sapiens, COLO 320): < 0.6 µg/mL | % SURVIVAL TUMOR (COLO320 (colon); human, colo320 colon tumor cells): 1.0% | % SURVIVAL TUMOR (HT29 (colon); HT29, continuous exposure): 1.2% | IC50 (HT29 (colon); Homo sapiens, HT-29): 0.613 µg/mL (≈ 4.71 µM) | IC50 (MCF-7 (breast); Homo sapiens, MCF7): < 0.6 µg/mL | % SURVIVAL TUMOR (MCF-7 (breast); MCF-7, continuous exposure): 0.8% | % SURVIVAL TUMOR (HS578T (breast); HS578T, continuous exposure): 43.5% | IC50 (HS578T (breast); Homo sapiens, Hs-578T): < 0.6 µg/mL | IC50 (OM-1 (colon); Homo sapiens): 1.47 µg/mL (≈ 11.3 µM) | % SURVIVAL TUMOR (OM-1 (colon); human, om-1 colon tumor cells): 1.7%

From US5559101A, “L-ribofuranosyl nucleosides” (priority 1994, dated 1996)
